Reference: patent US11267853B2, “Carbohydrate tethering at cell surfaces to induce immune response” (University of Rhode Island Board of Trustees, priority 2019, dated 2022)
Primed or numbered codes have the meaning given here. Where no end group is shown, it is not given here. Side-chain parts run from the residue outwards. maleimide = maleimide group (rhamnose-PEG12-maleimide) coupled to the N-terminal Cys of the peptide; PEG12′ = polyethylene glycol spacer of 12 units; Rha = rhamnose

How the values were obtained:
[1] = test system: HeLa cells (tumor spheroids); assay: Lectin-Cy3 binding to tumor spheroids pre-treated with rhamnose-pHLIP constructs (fluorescence confocal imaging); assay type: cell-based; details: HeLa spheroids pre-treated with 0-2 μM construct at pH 6.3, 37° C., 30 min, washed; then Lectin-Cy3 at pH 7.4; compared with lectin-Cy3 alone
Method: Induction of an immunological response requires a proper positioning of carbohydrate epitope at the surface of tumor cells. This was verified on 3-D tumor cancer cell culture (tumor spheroids). Briefly, a 2% agarose solution was made by dissolving in pH 7.4 PBS. 150 μL of the solution is pipetted into each well of a 48-well flat bottom tissue culture plate. After the agarose gel sufficiently settled (˜1 h), 150 μL of DMEM supplemented with 10% FBS and ciprofloxacin.HCl was added to each well. The covered plate was left in a humidified atmosphere at 37° C. and 5% CO2 in cell culture incubator for 24 h. On the next day, the excess medium was removed from the agarose layer. HeLa cells (10,000 cells) in 200 μL of DMEM containing 2% matrigel were added into each well and incubated for 3-4 days to allow the formation of spheroids. Matrigel was dissolved on ice overnight and added in ice cold DMEM at a concentration of 2.5% (to obtain a final concentration of 2% once added to the wells). Then the mixture was heated to 37° C. before being combined with the cells. Tumor spheroids were incubated in 50 μL of PBS buffer, pH 6.3 containing 0-2 μM Rha-pHLIP® or Rha-PEG12-pHLIP® in a humidified atmosphere of 5% CO2 at 37° C. for 30 min. After treatment, the spheroids were washed several times in 1 mL of PBS. […]

[2] = test system: B16-F10 melanoma murine cancer cells (flank tumor); assay: B16-F10 melanoma tumor weight in tri-Gal-immunized A3galt2-knockout mice after IP treatment; assay type: in vivo; details: B16-F10 flank tumors, IP injections 450 μl of 80 μM for 10 consecutive days (total 60 mg/kg), versus non-treated control group
From the text: Mice deficient in α1-3 gylactosyltransferase 2 (A3galt2) on 129/SvEv-[…] background heterozygous breeding pairs was obtained from Taconic Biosciences. The knockout mouse model is described in the article entitled “Normal development and function of invariant natural killer T cells in mice with isoglobotrihexosylceramide (iGb3) deficiency” by Porubsky et al. PNAS 2007 Apr. 3; 104(14): 5977-5982, incorporated herein by reference in its entirety.
All animal studies with the Gal-pHLIP® construct were conducted according to the animal protocol AN1920-003 approved by the Institutional Animal Care and Use Committee at the University of Rhode Island, in compliance with the principles and procedures outlined by the National Institutes of Health for the care and use of animals. Homo- and heterozygous A3galt2-knockout female and male mice on 129/SvEv-C57BL/6J background were used in the study.
First, immunization of mice was performed to develop antibodies against tri-Gal epitope. Briefly, at day 1 mice were immunized with Galα1-3Galβ1-4Glc-HSA (HSA: human serum albumin) from Dextra Laboratories, 20 μg/mouse emulsified in complete Freund's adjuvant. Booster injections of Galα1-3Galβ1-4Glc-HSA emulsified in incomplete Freund's adjuvant were administered at days 13, 20 and 27. […]

AS(Rha)DDQNPWRAYLDLLFPTDTLLLDLLWA [Rha-pHLIP®]
binding of lectin-Cy3 (fluorescence) to tumor spheroids [1]: much stronger binding of lectin-Cy3

Rha-PEG12-pHLIP®: Rhamnose-PEG12-malemide coupled with single Cys at N-terminal end of pHLIP® ACDDQNPWRAYLDLLFPTDTLLLDLLWA (SEQ ID NO: 469) (AC([maleimide-PEG12′-Rha])DDQNPWRAYLDLLFPTDTLLLDLLWA)
binding of lectin-Cy3 (fluorescence) to tumor spheroids [1]: much stronger binding of lectin-Cy3

tri-Gal-PEG4-pHLIP®: tri-Gal-PEG4 (Galα(1,3)Galβ(1,4)Glc-PEG4) coupled with pHLIP® ACDDQNPWRAYLDLLFPTDTLLLDLLWA (SEQ ID NO: 469) (not fully specified (residue 2); also: tri-Gal-PEG4 (Galα(1,3)Galβ(1,4)Glc-PEG4) coupled, site not given here)
tumor weight reduction [2]: About 65%
